Experimental data from patent publication US12122761B2, “2-azaspiro[3.4]octane derivatives as M4 agonists” (NOVARTIS AG, priority 2019, dated 2024).
Like-named read-outs stand apart in the source and are kept apart here.

Columns and labels:
[1] = molecular target: T1, human cloned CHRM4 receptor (M4_CHO cells) (Homo sapiens, UniProt P08173); assay: CHRM4 Ca++ Flux Assay (agonist mode, FDSS 7000EX); type: cell-based; conditions: for EC50: geometric mean if tested more than once, read-out: M4 FDSS EC50
T1 construct: expressed in transfected cells; host or cells: CHO-K1
T1 sequence (P08173 1-479): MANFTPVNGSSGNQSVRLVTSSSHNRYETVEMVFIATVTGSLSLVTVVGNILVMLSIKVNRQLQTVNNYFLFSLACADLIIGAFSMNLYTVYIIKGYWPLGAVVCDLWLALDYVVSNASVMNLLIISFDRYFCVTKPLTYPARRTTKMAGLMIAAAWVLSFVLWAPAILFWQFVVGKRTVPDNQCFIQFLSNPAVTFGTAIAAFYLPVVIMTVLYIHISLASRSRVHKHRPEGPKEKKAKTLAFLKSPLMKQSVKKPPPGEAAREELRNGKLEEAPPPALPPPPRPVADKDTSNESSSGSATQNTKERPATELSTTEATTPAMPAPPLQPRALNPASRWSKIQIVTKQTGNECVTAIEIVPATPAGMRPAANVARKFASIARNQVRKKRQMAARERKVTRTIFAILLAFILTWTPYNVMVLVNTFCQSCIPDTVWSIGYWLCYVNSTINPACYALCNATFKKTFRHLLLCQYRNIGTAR
Method: (§1) The above examples were characterized by measuring the intracellular mobilization of Ca++ ions caused by signaling events mediated by the receptor. The Intra-cellular Calcium flux levels were captured by the highly sensitive Ca++ indicator, Calcium Assay Kit (BD Biosciences, Catalog Number 640178). The fluorescent activity from all receptors were monitored by the fluorescent imager, FDSS 7000EX (Hamamatsu) over a span of 3 minutes.
(§2) CHO-K1 cells stably expressing the human cloned CHRM4 receptor (M4_CHO cells) were grown and maintained in a monolayer culture with F12/HAM (Life Technologies) supplemented with 10% Fetal Bovine Serum, 1× Pen-Strep, and 0.4 mg/mL Geneticin in a humidified atmosphere (5% CO2) at 37° C. The cultures were grown to 80-90% confluency in T150 flasks (Corning) and washed with 1×DPBS then lifted with 0.05% Trypsin (Life Technologies). The cells were harvested in growth media then spun (1K rpm, 3 minutes) and cryopreserved using Recovery Cell Culture Freezing Media (Gibco Technologies). Cells were stored in liquid nitrogen and thawed a day before the assay.
Prior to the day of the assay, stable M4_CHO cells were thawed and plated on 384 well black walled clear bottom TC treated plates (Greiner Cat #781091) at 12K cells/well using F12/HAM Media supplemented with 10% FBS (Life Technologies) and kept overnight in a humidified atmosphere (5% CO2) at 37° C. The next day, cells were loaded with […] Ca^++ dye (BD Biosciences) using Loading Buffer (HBSS +Ca/+Mg, 20 mM HEPES, 2.5 mM Probenecid) and placed back in cell incubator for a minimum of 1 hour. After incubation, the dye was replaced with 45 μL Assay Buffer (HBSS −Ca/−Mg, 20 mM HEPES, 2.5 mM Probenecid) supplemented with 20 μM ATP (Sigma Aldrich) and kept at room temperature in the dark for 60 minutes before running on a cell imager. The FDSS 7000EX (Hamamatsu) was used to capture Ca^++ traces for a span of 3 minutes from cells treated with 11 point dose of compound in triplicate in order to generate dose response curves in agonist mode. All compounds were serially diluted in DMSO then prepared in Assay Buffer for Ca^++ flux studies. The dose response curves were generated from the average of triplicate wells obtained from each data point and used a non-linear regression of four parameter dose response algorithm. The Percent Activity (PA) was measured to EC100 of Carbachol.

[2] = molecular target: T2, human cloned CHRM2 receptor (M2_CHO cells) (Homo sapiens, UniProt P08172); assay: CHRM2 Ca++ Flux Assay (agonist mode, FDSS 7000EX); type: cell-based
T2 construct: expressed in transfected cells; host or cells: CHO-K1
T2 sequence (P08172 1-466): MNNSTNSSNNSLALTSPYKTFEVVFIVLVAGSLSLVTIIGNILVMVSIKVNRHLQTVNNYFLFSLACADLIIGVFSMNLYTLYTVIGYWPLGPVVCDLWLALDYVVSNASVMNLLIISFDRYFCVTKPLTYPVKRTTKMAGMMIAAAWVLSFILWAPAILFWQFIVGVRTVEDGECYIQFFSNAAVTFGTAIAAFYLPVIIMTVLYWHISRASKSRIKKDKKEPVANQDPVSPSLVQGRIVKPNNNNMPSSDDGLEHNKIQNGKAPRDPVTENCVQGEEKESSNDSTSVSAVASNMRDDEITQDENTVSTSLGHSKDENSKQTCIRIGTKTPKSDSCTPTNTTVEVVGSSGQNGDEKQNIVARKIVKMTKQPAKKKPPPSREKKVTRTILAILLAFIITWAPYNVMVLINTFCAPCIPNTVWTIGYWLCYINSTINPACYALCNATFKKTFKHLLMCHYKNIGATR
Method: as §1
as §2, with “cloned CHRM2” for “cloned CHRM4”, “receptor (M2_CHO” for “receptor (M4_CHO”, “to 80-9 0%” for “to 80-90%”, “1×DPBS and” for “1×DPBS then”, “were” for “were harvested in growth media”, “and frozen” for “and cryopreserved”
Prior to the day of the assay, stable M2 CHO cells were thawed and plated on Greiner 384 well TC treated plate at a density of 12K cells/well and kept overnight in a humidified atmosphere (5% CO2) at 37° C. The following day, the cells were loaded with Ca^++ dye (BD Biosciences) using Loading Buffer (HBSS +Ca/+Mg, 20 mM HEPES, 2.5 mM Probenecid) and placed back in cell incubator for a minimum of 1 hour and maximum of 2 hours. After incubation, the dye was replaced with Assay Buffer (HBSS −Ca/−Mg, 20 mM HEPES, 2.5 mM Probenecid) supplemented with 20 μM ATP (Sigma Aldrich) and kept at room temperature for 60 minutes prior before running on cell imager. The FDSS 7000EX (Hamamatsu) was used to acquire Ca^++ traces from cells in response to compound treatment and the data was used to generate dose response curves in agonist mode. All compounds were serially diluted in DMSO then prepared in Assay Buffer for Ca^++ flux studies. The dose response curves were generated from the average of triplicate wells obtained from each data point and used a non-linear regression of four parameter dose response algorithm. The Percent Activity (PA) was measured to EC100 of Carbachol.

[3] = Percent Activity measured to EC100 of Carbachol

SMILES | M4 FDSS PA ([1]; Percent Activity) | EC50 [1] | M2 FDSS PA [2, 3] | other results
O=C(N1CC2(CC[C@@H](N3CCC(c4cc(F)ccc4C4(O)CCOCC4)CC3)C2)C1)C1(F)CC1 (single isomer, unassigned) [Example 9I, (R)-(6-(4-(5-fluoro-2-(4-hydroxytetrahydro-2H-pyran-4-yl)phenyl)piperidin-1-yl)-2-azaspiro[3.4]octan-2-yl)(1-fluorocyclopropyl)methanone or (S)-(6-(4-(5-fluoro-2-(4-hydroxytetrahydro-2H-pyran-4-yl)phenyl)piperidin-1-yl)-2-azaspiro[3.4]octan-2-yl)(1-fluorocyclopropyl)methanone] | 17% | 15 nM | 0% | 
O=C(C1COC1)N1CC2(CC[C@H](N3CCC(c4ccccc4OC(F)F)CC3)C2)C1.O=C(O)CC(O)(CC(=O)O)C(=O)O (single isomer, unassigned) [Example 8E, (S)-(6-(4-(2-(difluoromethoxy)phenyl)piperidin-1-yl)-2-azaspiro[3.4]octan-2-yl)(oxetan-3-yl)methanone or (R)-(6-(4-(2-(difluoromethoxy)phenyl)piperidin-1-yl)-2-azaspiro[3.4]octan-2-yl)(oxetan-3-yl)methanone citrate salt] |  |  |  | M4 FDSS PA ([1]; Percent Activity, citrate salt): 61%; EC50 ([1]; citrate salt): 2 nM; M2 FDSS PA ([2]; Percent Activity measured to EC100 of Carbachol, citrate salt): 26%; EC50 ([2]; agonist mode, geometric mean if tested more than once, citrate salt, read-out: M2 FDSS EC50): 96 nM
Fc1ccc(OC2CC3(COC3)C2)c(C2CCN([C@@H]3CCC4(C3)CN(c3cncnc3)C4)CC2)c1 (single isomer, unassigned) [Example 10F, (R)-6-(4-(2-((2-oxaspiro[3.3]heptan-6-yl)oxy)-5-fluorophenyl)piperidin-1-yl)-2-(pyrimidin-5-yl)-2-azaspiro[3.4]octane or (S)-6-(4-(2-((2-oxaspiro[3.3]heptan-6-yl)oxy)-5-fluorophenyl)piperidin-1-yl)-2-(pyrimidin-5-yl)-2-azaspiro[3.4]octane] | 71% | 4.7 nM | 0% | 
O=C(N1CC2(CC[C@@H](N3CCC(c4cc(F)ccc4OC4CCOCC4)CC3)C2)C1)C1(F)CC1 (single isomer, unassigned) [Example 9C, (R)-(6-(4-(5-fluoro-2-((tetrahydro-2H-pyran-4-yl)oxy)phenyl)piperidin-1-yl)-2-azaspiro[3.4]octan-2-yl)(1-fluorocyclopropyl)methanone or (S)-(6-(4-(5-fluoro-2-((tetrahydro-2H-pyran-4-yl)oxy)phenyl)piperidin-1-yl)-2-azaspiro[3.4]octan-2-yl)(1-fluorocyclopropyl)methanone] | 54% | 1 nM | 0% | 
O=C(N1CC2(CC[C@@H](N3CCC(c4cc(F)ccc4C4(O)CCOCC4)CC3)C2)C1)C1(F)CC1 (single isomer, unassigned) [Example 9J, (R)-(6-(4-(5-fluoro-2-(4-hydroxytetrahydro-2H-pyran-4-yl)phenyl)piperidin-1-yl)-2-azaspiro[3.4]octan-2-yl)(1-fluorocyclopropyl)methanone or (S)-(6-(4-(5-fluoro-2-(4-hydroxytetrahydro-2H-pyran-4-yl)phenyl)piperidin-1-yl)-2-azaspiro[3.4]octan-2-yl)(1-fluorocyclopropyl)methanone] | 1% | 241 nM | 0% | 
O=C1CCCN1CCOc1ccccc1C1CCN([C@@H]2CCC3(C2)CN(C(=O)C2(F)CC2)C3)CC1.O=CO (single isomer, unassigned) [Example 7P, (R)-1-(2-(2-(1-(2-(1-fluorocyclopropane-1-carbonyl)-2-azaspiro[3.4]octan-6-yl)piperidin-4-yl)phenoxy)ethyl)pyrrolidin-2-one formate salt or (S)-1-(2-(2-(1-(2-(1-fluorocyclopropane-1-carbonyl)-2-azaspiro[3.4]octan-6-yl)piperidin-4-yl)phenoxy)ethyl)pyrrolidin-2-one formate salt] | 49% | 1 nM | 0% | 

Second part, led by results:

M4 FDSS PA ([1]; Percent Activity) | EC50 [1] | M2 FDSS PA [2, 3] | SMILES | other results
36% | 122 nM | 0% | COc1ccccc1C1CCN([C@@H]2CCC3(C2)CN(c2ncns2)C3)CC1 (single isomer, unassigned) [Example 10R, (R)-5-(6-(4-(2-methoxyphenyl)piperidin-1-yl)-2-azaspiro[3.4]octan-2-yl)-1,2,4-thiadiazole or (S)-5-(6-(4-(2-methoxyphenyl)piperidin-1-yl)-2-azaspiro[3.4]octan-2-yl)-1,2,4-thiadiazole] | 
 | 51 nM |  | COc1ccccc1C1CCN([C@@H]2CCC3(C2)CN(c2ncnc(C)n2)C3)CC1 [Example 5M, (R)-6-(4-(2-methoxyphenyl)piperidin-1-yl)-2-(4-methyl-1,3,5-triazin-2-yl)-2-azaspiro[3.4]octane] | Emax ([1]; Percent Activity, read-out: M4 FDSS PA): 43%; Emax ([2]; Percent Activity measured to EC100 of Carbachol, read-out: M2 FDSS PA): 0%
66% | 5 nM | 0% | O=C(N1CC2(CC[C@@H](N3CCC(c4ccccc4OC(F)(F)F)CC3)C2)C1)C1(F)CC1 (single isomer, unassigned) [Example 9B, (R)-(1-fluorocyclopropyl)(6-(4-(2-(trifluoromethoxy)phenyl)piperidin-1-yl)-2-azaspiro[3.4]octan-2-yl)methanone or (S)-(1-fluorocyclopropyl)(6-(4-(2-(trifluoromethoxy)phenyl)piperidin-1-yl)-2-azaspiro[3.4]octan-2-yl)methanone] | 
